From patent publication US8927717B1, “Thiochromeno[2,3-c]quinolin-12-one derivatives, preparation method and application thereof” (National Defense Medical Center, priority 2014, dated 2015)

Key:
Assay type in all cases: cell-based
[1] = system: SW-620
[2] = system: SK-MEL-28
[3] = system: NCI-H460
[4] = system: 786-0
[5] = system: KM12; assay: cells
[6] = system: MCF7
[7] = system: OVCAR-5
[8] = system: SNB-75
[9] = system: MDA-MB-231/ATCC
[10] = system: NCI/ADR-RES
[11] = system: UO-31
[12] = system: TK-10
[13] = system: MALME-3M
[14] = system: K-562
[15] = system: ACHN
[16] = system: NCI-H23
[17] = system: RXF 393; conditions: Renal cancer; 10^−5 molar; 48 hours; SRB
[18] = system: SF-268
[19] = system: LOX IMVI; conditions: LOX IMVI, five dose
[20] = system: HS 578T
[21] = system: RPMI-8226
[22] = system: DU-145
[23] = system: 60 cancer cell lines; assay: NCI 60-cell screen, SRB, whole panel (mean, delta, range)
[24] = system: COLO 205
[25] = system: HT29
[26] = system: U251; conditions: U251, five dose
[27] = system: NCI-H522
[28] = system: SN12C
[29] = system: SF-295
[30] = system: CCRF-CEM
[31] = system: MDA-MB-486
[32] = system: M14
[33] = system: PC-3
[34] = system: SNB-19
[35] = system: SK-MEL-5
[36] = system: HL-60(TB); conditions: Leukemia; 10^−5 molar; 48 hours; SRB
[37] = system: UACC-62
[38] = system: T-47D
[39] = system: OVCAR-8
[40] = Colon cancer, 10^−5 molar, 48 hours, SRB
[41] = Homo sapiens, SW-620, five dose
[42] = Homo sapiens, SK-MEL-28, five dose
[43] = Melanoma, 10^−5 molar, 48 hours, SRB
[44] = Homo sapiens, NCI-H460, five dose
[45] = Non-small cell lung cancer, 10^−5 molar, 48 hours, SRB
[46] = Renal cancer, 10^−5 molar, 48 hours, SRB
[47] = Breast cancer, 10^−5 molar, 48 hours, SRB
[48] = Ovarian cancer, 10^−5 molar, 48 hours, SRB
[49] = CNS cancer, 10^−5 molar, 48 hours, SRB
[50] = Homo sapiens, SNB-75, five dose
[51] = Homo sapiens, MALME-3M, five dose
[52] = Leukemia, 10^−5 molar, 48 hours, SRB
[53] = Homo sapiens, NCI-H23, five dose
[54] = Prostate cancer, 10^−5 molar, 48 hours, SRB
[55] = Homo sapiens, HT-29, HT29, five dose
[56] = Homo sapiens, NCI-H522, five dose
[57] = Homo sapiens, SK-MEL-5, five dose

With `NCCNc1nc2ccccc2c2c(=O)c3cc(Cl)ccc3sc12` [Compound N14, 6-((2-Aminoethyl)amino)-10-chloro-12H-thiochromeno[2,3-c]quinolin-12-one] the “Growth percent SW-620” value [1, 40] was −66.88%, the GI50 [1, 41] was 1.67 µM and the LC50 [1, 41] was 7.02 µM. It also gave a TGI ([1]; SW-620, five dose) of 3.42 µM, a GI50 [2, 42] of 1.75 µM and an LC50 [2, 42] of 5.66 µM. The “Growth percent SK-MEL-28” value [2, 43] was −96.20%, the TGI ([2]; SK-MEL-28, five dose) was 3.15 µM and the GI50 [3, 44] was 1.69 µM. The LC50 [3, 44] was 7.05 µM, the TGI ([3]; NCI-H460, five dose) was 3.45 µM and the “Growth percent NCI-H460” value [3, 45] was −62.39%. For the same compound, the TGI ([4]; 786-0, five dose) was 3.20 µM, the GI50 ([4]; Homo sapiens, 786-0, five dose) was 1.76 µM and the CC50 ([4]; Homo sapiens, 786-0, five dose, read-out: LC50 (the source's name)) was 5.81 µM. The “Growth percent 786-0” value [4, 46] was −57.40%, the “Growth percent KM12” value [5, 40] was −85.99% and the GI50 ([5]; Homo sapiens, KM12, five dose) was 1.67 µM. For the same compound, the LC50 ([5]; Homo sapiens, KM12, five dose) was 5.79 µM, the TGI ([5]; KM12, five dose) was 3.11 µM and the “Growth percent MCF7 (Table 2: MCF)” value [6, 47] was −98.38%. The GI50 ([6]; Homo sapiens, MCF7, five dose) was 1.28 µM, the TGI ([6]; MCF7, five dose) was 2.81 µM and the GI50 ([7]; Homo sapiens, OVCAR-5, five dose) was 1.46 µM. For the same compound, the CC50 ([7]; Homo sapiens, OVCAR-5, five dose, read-out: LC50 (the source's name)) was 5.66 µM, the TGI ([7]; OVCAR-5, five dose) was 2.88 µM and the “Growth percent OVCAR-5” value [7, 48] was −52.16%. The “Growth percent SNB-75” value [8, 49] was −43.13%, the GI50 [8, 50] was 1.09 µM and the LC50 [8, 50] was 4.9 µM. The TGI ([8]; SNB-75, five dose) was 2.31 µM, the “Growth percent MDA-MB-231/ATCC” value [9, 47] was −84.52% and the GI50 ([9]; Homo sapiens, MDA-MB-231/ATCC, five dose) was 1.31 µM. It also gave a CC50 ([9]; Homo sapiens, MDA-MB-231/ATCC, five dose, read-out: LC50 (the source's name)) of 5.35 µM, a TGI ([9]; MDA-MB-231/ATCC, five dose) of 2.65 µM and a GI50 ([10]; Homo sapiens, NCI/ADR-RES, five dose) of 1.88 µM. The TGI ([10]; NCI/ADR-RES, five dose) was 3.67 µM, the “Growth percent NCI/ADR-RES” value [10, 48] was −42.68% and the GI50 ([11]; Homo sapiens, UO-31, five dose) was 1.29 µM. For the same compound, the CC50 ([11]; Homo sapiens, UO-31, five dose, read-out: LC50 (the source's name)) was 5.96 µM, the “Growth percent UO-31” value [11, 46] was −92.77% and the TGI ([11]; UO-31, five dose) was 2.78 µM. For the same compound, the GI50 ([12]; Homo sapiens, TK-10, five dose) was 2.06 µM, the CC50 ([12]; Homo sapiens, TK-10, five dose, read-out: LC50 (the source's name)) was 6.21 µM and the “Growth percent TK-10” value [12, 46] was −28.04%. It also gave a TGI ([12]; TK-10, five dose) of 3.58 µM, a GI50 [13, 51] of 1.98 µM and an LC50 [13, 51] of 7.93 µM. The TGI ([13]; MALME-3M, five dose) was 3.96 µM, the “Growth percent MALME-3M” value [13, 43] was −48.42% and the GI50 ([14]; Homo sapiens, K562, K-562, five dose) was 1.69 µM. The CC50 ([14]; Homo sapiens, K562, K-562, five dose, read-out: LC50 (the source's name)) was 7.84 µM, the TGI ([14]; K-562, five dose) was 3.65 µM and the “Growth percent K-562” value [14, 52] was −57.17%. The TGI ([15]; ACHN, five dose) was 2.76 µM, the GI50 ([15]; Homo sapiens, ACHN, five dose) was 1.44 µM and the CC50 ([15]; Homo sapiens, ACHN, five dose, read-out: LC50 (the source's name)) was 5.29 µM. The “Growth percent ACHN” value [15, 46] was −92.31%, the GI50 [16, 53] was 1.72 µM and the LC50 (lethal concentration 50%) [16, 53] was 6.63 µM. The TGI ([16]; NCI-H23, five dose) was 3.37 µM, the “Growth percent NCI-H23” value [16, 45] was −5.25% and the “Growth percent RXF 393” value [17] was −87.22%. For the same compound, the “Growth percent SF-268” value [18, 49] was −67.65%, the GI50 ([18]; Homo sapiens, SF-268, five dose) was 1.59 µM and the CC50 ([18]; Homo sapiens, SF-268, five dose, read-out: LC50 (the source's name)) was 6.55 µM. For the same compound, the TGI ([18]; SF-268, five dose) was 3.23 µM, the GI50 ([19]; Homo sapiens) was 1.68 µM and the LC50 ([19]; Homo sapiens) was 5.96 µM. For the same compound, the TGI [19] was 3.16 µM, the “Growth percent HS 578T” value [20, 47] was 50.82% and the TGI ([20]; HS 578T, five dose) was 3.90 µM. It also gave a GI50 ([20]; Homo sapiens, HS 578T, five dose) of 1.69 µM, a GI50 ([21]; Homo sapiens, RPMI-8226, five dose) of 2.26 µM and a CC50 ([21]; Homo sapiens, RPMI-8226, five dose, read-out: LC50 (the source's name)) of 62.3 µM. For the same compound, the “Growth percent RPMI-8226” value [21, 52] was −27.48%, the TGI ([21]; RPMI-8226, five dose) was 4.92 µM and the TGI ([22]; DU-145, five dose) was 3.20 µM. The GI50 ([22]; Homo sapiens, DU-145, five dose) was 1.81 µM, the CC50 ([22]; Homo sapiens, DU-145, five dose, read-out: LC50 (the source's name)) was 5.66 µM and the “Growth percent DU-145” value [22, 54] was −96.35%. The GI50 ([23]; 60 cell, mean over panel, five dose) was 1.66 µM, the CC50 ([23]; 60 cell, mean over panel, five dose, read-out: LC50, Mean) was 7.94 µM and the “Growth percent, Delta” value ([23]; delta over the cell panel, 10^−5 molar, 48 hours, SRB) was 46.49%. The “TGI, Mean” value ([23]; mean over panel, five dose) was 3.39 µM, the “Growth percent, Mean” value ([23]; mean over the cell panel, 10^−5 molar, 48 hours, SRB) was −51.89% and the “Growth percent, Range” value ([23]; range over the cell panel, 10^−5 molar, 48 hours, SRB) was 176.87%. The TGI ([24]; COLO 205, five dose) was 3.57 µM, the “Growth percent COLO 205” value [24, 40] was −87.22% and the GI50 ([24]; Homo sapiens, COLO 205, five dose) was 1.73 µM. For the same compound, the “Growth percent HT29” value [25, 40] was −83.30%, the TGI ([25]; HT29, five dose) was 3.29 µM and the GI50 [25, 55] was 1.78 µM. For the same compound, the LC50 (concentration killing 50% of cells) [25, 55] was 6.09 µM, the GI50 ([26]; Homo sapiens, U-251) was 1.63 µM and the LC50 ([26]; Homo sapiens, U-251) was 5.78 µM. For the same compound, the TGI [26] was 3.07 µM, the GI50 [27, 56] was 1.86 µM and the LC50 (concentration causing 50% net cell kill) [27, 56] was 6.92 µM. For the same compound, the TGI ([27]; NCI-H522, five dose) was 3.59 µM, the “Growth percent NCI-H522” value [27, 45] was −66.59% and the GI50 ([28]; Homo sapiens, SN12C, five dose) was 1.45 µM. The “Growth percent SN12C” value [28, 46] was −93.98%, the TGI ([28]; SN12C, five dose) was 3.02 µM and the “Growth percent SF-295” value [29, 49] was −74.29%. For the same compound, the GI50 ([29]; Homo sapiens, SF-295, five dose) was 1.79 µM, the TGI ([29]; SF-295, five dose) was 3.63 µM and the TGI ([30]; CCRF-CEM, five dose) was 3.65 µM. The GI50 ([30]; Homo sapiens, CCRF-CEM, five dose) was 1.75 µM, the CC50 ([30]; Homo sapiens, CCRF-CEM, five dose, read-out: LC50 (the source's name)) was 7.64 µM and the “Growth percent CCRF-CEM” value [30, 52] was −39.61%. The GI50 ([31]; 60 cell, MDA-MB-486, five dose) was 1.27 µM, the CC50 ([31]; 60 cell, MDA-MB-486, five dose, read-out: LC50 (the source's name)) was 6.15 µM and the “Growth percent MDA-MB-486” value [31, 47] was −62.13%. It also gave a TGI ([31]; MDA-MB-486, five dose) of 2.80 µM, a GI50 ([32]; Homo sapiens, M14, five dose) of 1.83 µM and an LC50 ([32]; Homo sapiens, M14, five dose) of 6.14 µM. The TGI ([32]; M14, five dose) was 3.35 µM, the “Growth percent M14” value [32, 43] was −55.62% and the GI50 ([33]; Homo sapiens, PC-3, five dose) was 1.55 µM. The CC50 ([33]; Homo sapiens, PC-3, five dose, read-out: LC50 (the source's name)) was 5.76 µM, the TGI ([33]; PC-3, five dose) was 2.99 µM and the “Growth percent PC-3” value [33, 54] was −97.71%. The “Growth percent SNB-19” value [34, 49] was 40.06%, the GI50 ([34]; Homo sapiens, SNB-19, five dose) was 1.65 µM and the TGI ([34]; SNB-19, five dose) was 3.18 µM. For the same compound, the GI50 [35, 57] was 1.51 µM, the LC50 [35, 57] was 5.44 µM and the “Growth percent SK-MEL-5” value [35, 43] was 68.64%. For the same compound, the TGI ([35]; SK-MEL-5, five dose) was 2.87 µM, the “Growth percent HL-60(TB)” value [36] was −47.50% and the GI50 ([37]; Homo sapiens, UACC-62, five dose) was 1.67 µM. For the same compound, the CC50 ([37]; Homo sapiens, UACC-62, five dose, read-out: LC50 (the source's name)) was 6.52 µM, the “Growth percent UACC-62” value [37, 43] was −96.67% and the TGI ([37]; UACC-62, five dose) was 3.30 µM. The “Growth percent T-47D” value [38, 47] was −82.45%, the GI50 ([38]; Homo sapiens, T47D, T-47D, five dose) was 1.56 µM and the TGI ([38]; T-47D, five dose) was 3.37 µM. The GI50 ([39]; Homo sapiens, OVCAR-8, five dose) was 1.89 µM, the TGI ([39]; OVCAR-8, five dose) was 4.12 µM and the “Growth percent OVCAR-8” value [39, 48] was −74.59%.
